Calls of active or inactive are those of the source. No cut-off for these calls is given here.
Test system: Schizosaccharomyces pombe
Test: Induction of calcium signaling pathway-mediated cell growth in ppb1-deficient Schizosaccharomyces pombe h+ leu1 ura4-D18 ppb1::ura4+ at 100 uM after 3 days by filter paper disc method in presence of MgCl2
Type: functional, organism-based

SMILES	Activity
CCCCCCCC(=O)O[C@@H]1[C@H](OC[C@@H](O)[C@H](O)[C@H](O)[C@@H](O)CO)O[C@H](COC(=O)CCCCC)[C@@H](OC(=O)CCCCC)[C@@H]1OC(=O)CCCCC	Active
CCCCCCCC(=O)O[C@@H]1[C@H](OC[C@@H](O)[C@@H](O)[C@H](O)[C@@H](O)CO)O[C@H](COC(=O)CCCCC)[C@@H](OC(=O)CCCCC)[C@@H]1OC(=O)CCCCC	Active
CCCCCCCC(=O)O[C@@H]1[C@H](OC[C@@H](O)[C@H](O)[C@@H](O)[C@@H](O)CO)O[C@H](COC(=O)CCCCC)[C@@H](OC(=O)CCCCC)[C@@H]1OC(=O)CCCCC	Active
CCCCCCCC(=O)O[C@@H]1[C@H](OC[C@H](O)[C@@H](O)[C@@H](O)[C@H](O)CO)O[C@H](COC(=O)CCCCC)[C@@H](OC(=O)CCCCC)[C@@H]1OC(=O)CCCCC	Active
CCCCCCCC(=O)O[C@@H]1[C@H](OC[C@H](O)[C@@H](O)[C@H](O)[C@H](O)CO)O[C@H](COC(=O)CCCCC)[C@@H](OC(=O)CCCCC)[C@@H]1OC(=O)CCCCC	Active
CCCCCCCC(=O)O[C@@H]1[C@H](OC[C@@H](O)[C@@H](O)[C@H](O)[C@H](O)CO)O[C@H](COC(=O)CCCCC)[C@@H](OC(=O)CCCCC)[C@@H]1OC(=O)CCCCC	Active

— ChEMBL document CHEMBL3102748, “Structure-activity relationship studies on acremomannolipin A, the potent calcium signal modulator with a novel glycolipid structure 2: Role of the alditol side chain stereochemistry” (Bioorg Med Chem, 2014)
